According to US20090270478A1, “ION CHANNEL MODULATING ACTIVITY II” (CARDIOME PHARMA CORP., priority 2000, published 2009):

Tests used:
[1] = target: human heart sodium channel (hH1) (Homo sapiens, UniProt Q14524); type: cell-based
[2] = tested on: isolated rabbit Purkinje fibers; conditions: 100 μM lidocaine, 300 nM dofetilide
[3] = target: T1, hH1 sodium channel (Homo sapiens, UniProt Q14524); assay: Inactivated state inhibition of hH1 sodium channel current (prepulse protocol); type: cell-based
T1 construct: expressed in transfected cells
T1 sequence (Q14524 whole entry): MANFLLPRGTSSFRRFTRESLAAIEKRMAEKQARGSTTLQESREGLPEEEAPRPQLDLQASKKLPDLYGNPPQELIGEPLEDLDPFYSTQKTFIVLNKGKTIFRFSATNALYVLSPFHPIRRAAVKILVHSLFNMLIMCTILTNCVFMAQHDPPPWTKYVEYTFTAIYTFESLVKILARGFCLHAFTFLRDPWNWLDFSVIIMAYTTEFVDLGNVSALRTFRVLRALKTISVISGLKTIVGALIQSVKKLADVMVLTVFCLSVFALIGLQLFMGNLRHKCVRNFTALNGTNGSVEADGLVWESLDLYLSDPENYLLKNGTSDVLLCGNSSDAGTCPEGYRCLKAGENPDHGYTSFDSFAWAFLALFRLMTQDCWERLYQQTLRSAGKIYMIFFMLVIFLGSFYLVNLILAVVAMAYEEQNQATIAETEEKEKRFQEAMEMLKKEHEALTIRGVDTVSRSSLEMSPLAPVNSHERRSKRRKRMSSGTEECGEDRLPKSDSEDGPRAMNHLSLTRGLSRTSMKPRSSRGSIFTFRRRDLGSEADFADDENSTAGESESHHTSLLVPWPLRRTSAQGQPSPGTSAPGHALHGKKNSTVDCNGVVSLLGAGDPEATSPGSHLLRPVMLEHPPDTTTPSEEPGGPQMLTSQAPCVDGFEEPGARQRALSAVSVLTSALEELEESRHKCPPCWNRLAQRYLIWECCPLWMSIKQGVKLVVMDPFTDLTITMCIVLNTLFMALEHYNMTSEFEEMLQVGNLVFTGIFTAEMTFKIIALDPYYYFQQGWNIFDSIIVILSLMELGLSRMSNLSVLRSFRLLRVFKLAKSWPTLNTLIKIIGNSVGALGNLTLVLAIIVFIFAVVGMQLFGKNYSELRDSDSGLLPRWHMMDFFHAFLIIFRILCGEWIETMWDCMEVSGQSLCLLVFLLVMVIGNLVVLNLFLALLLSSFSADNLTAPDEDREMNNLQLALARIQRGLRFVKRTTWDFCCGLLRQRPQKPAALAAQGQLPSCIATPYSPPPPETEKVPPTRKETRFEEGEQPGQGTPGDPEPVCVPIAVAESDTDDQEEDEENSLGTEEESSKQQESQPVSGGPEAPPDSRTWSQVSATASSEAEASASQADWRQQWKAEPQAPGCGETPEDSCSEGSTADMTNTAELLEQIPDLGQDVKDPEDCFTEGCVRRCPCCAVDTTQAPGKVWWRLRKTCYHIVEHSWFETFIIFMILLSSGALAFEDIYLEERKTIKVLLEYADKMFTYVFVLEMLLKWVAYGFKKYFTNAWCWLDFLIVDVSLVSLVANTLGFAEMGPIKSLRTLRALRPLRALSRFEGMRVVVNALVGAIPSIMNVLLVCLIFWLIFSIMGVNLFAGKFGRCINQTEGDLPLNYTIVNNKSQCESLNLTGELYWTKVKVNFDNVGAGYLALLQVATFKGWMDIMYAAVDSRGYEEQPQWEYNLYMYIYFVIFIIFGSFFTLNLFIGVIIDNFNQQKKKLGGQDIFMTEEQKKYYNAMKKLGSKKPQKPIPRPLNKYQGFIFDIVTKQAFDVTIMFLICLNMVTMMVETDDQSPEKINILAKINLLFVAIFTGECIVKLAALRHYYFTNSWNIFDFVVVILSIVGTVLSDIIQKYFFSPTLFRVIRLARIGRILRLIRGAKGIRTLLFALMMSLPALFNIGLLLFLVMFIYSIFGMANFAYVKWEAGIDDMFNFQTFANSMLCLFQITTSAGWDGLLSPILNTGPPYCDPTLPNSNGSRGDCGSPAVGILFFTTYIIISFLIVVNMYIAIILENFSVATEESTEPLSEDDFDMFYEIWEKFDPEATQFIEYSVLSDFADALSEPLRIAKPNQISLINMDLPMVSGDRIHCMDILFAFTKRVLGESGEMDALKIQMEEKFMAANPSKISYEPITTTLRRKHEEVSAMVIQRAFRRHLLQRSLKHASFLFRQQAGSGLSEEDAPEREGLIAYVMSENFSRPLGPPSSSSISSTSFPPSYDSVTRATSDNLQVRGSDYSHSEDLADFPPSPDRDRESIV

human heart sodium channel (hH1), sequence (Q14524 whole entry, looked up): as the sequence (Q14524 whole entry) above

SMILES: CCN(CC)CC(=O)Nc1c(C)cccc1C [lidocaine]
- block of early TTX-sensitive sodium current, Iearly(TTX) [1]: 41±2.7%
- block of late TTX-sensitive sodium current, Ilate(TTX) [1]: 73±2.8%
- block of sustained TTX-sensitive sodium current, Isus(TTX) [1]: 70±2.5%
- termination of dofetilide-induced EADs [2]: terminated dofetilide-induced (300 nM) EADs
- inhibition of hH1 with longer prepulses (inactivated state inhibition) [3]: produced enhanced inhibition when prepulses of longer duration were applied
